# Laboratory results from patent US20240398767A1, “INHIBITORS OF THE MTDH-SND1 PROTEIN COMPLEX FOR CANCER THERAPY” (The Trustees of Princeton University, priority 2021, published 2024).
# Key:
# [1] = system: PyMT tumors with MTDH KO or SND1 KD; assay: PyMT tumor models with MTDH KO or SND1 KD in FVB mice; type: in vivo, FVB female mice; details: 6 weeks treatment
# Description: FIG. 5G, 10 k of the cells of FIG. 5F were inoculated into FVB female mice and treated with or without C26-A6 after primary tumors reached to approximately 2 mm in diameter. 6 weeks after treatment, tumor size was determined. Vehicle, n=10 mice; C26-A6, n=10 mice.
# FIG. 5H, 10 k of the cells of FIG. 5F were inoculated into FVB female mice and treated with or without C26-A6 after primary tumors reached to approximately 2 mm in diameter. 6 weeks after treatment, spontaneous lung metastasis was determined. The lung metastatic areas of the representative lungs were highlighted with red. Vehicle, n=10 mice; C26-A6, n=10 mice. Size bar, 5 mm.
# FIG. 5J, 10 k of the cells of FIG. 5I were injected into FVB females and treated similarly as in FIGS. 5G, 5H. Tumor size was assessed. Vehicle, n=10 mice; C26-A6, n=10 mice.
# FIG. 5K, 10 k of the cells of FIG. 5I were injected into FVB females and treated similarly as in FIGS. 5G, 5H. Lung metastasis was assessed. The lung metastatic areas of the representative lungs were highlighted with red. Vehicle, n=10 mice; C26-A6, n=10 mice. Size bar, 5 mm.
# Next, to further validate that the anti-tumor effect of C26-A6 depends on its on-target effects by disrupting MTDH-SND1 complex, PyMT; UBC-Cre^ERT+/−;Mtdh^fl/fl tumor cells with Mtdh depletion or with endogenous Snd1 KD were employed for the similar assay as in FIG. 5-1a. […]
# PyMT tumor cells = assay: Experimental lung metastasis, tail vein injection of PyMT tumor cells; type: in vivo, FVB mice; details: treatment from 3 days after injection, five weeks
# Description: FIG. 5L, 2 k PyMT tumor cells were injected into FVB females via tail-vein. 3 days after injection, the mice were treated with vehicle or C26-A6.
# FIG. 5M, 2 k PyMT tumor cells were injected into FVB females via tail-vein. 3 days after injection, the mice were treated with vehicle or C26-A6. 5 weeks later, lung metastatic nodules were counted. n=6 mice per group. Data represent mean±SEM.
# (§1) To exclude the possibility that the lung metastasis reduction upon C26-A6 treatment was due to the smaller primary tumor, tail vein injection of PyMT tumor cells was performed to form experimental lung metastasis in FVB mice. Three days later, mice were divided randomly into two groups and treated with vehicle or C26-A6 respectively (FIG. 5L).
# SCP28 cells = assay: Experimental lung metastasis of SCP28 cells; type: in vivo; details: 5 weeks treatment
# Description: FIG. 17D, Tail-vein injection lung metastasis was determined by BLI right before (Week 0) or after (5 weeks) vehicle or C26-A6 treatment. Vehicle, n=11 lungs; C26-A6, n=12 lungs.
# FIG. 17E, Lung metastatic nodules were quantified. The metastatic nodules of the representative lungs were highlighted with red and blue respectively. Size bar, 5 mm. Vehicle, n=11 lungs; C26-A6, n=12 lungs.
# as §1
structure (smiles),measurement,setting,value
COc1ccc(Cl)cc1S(=O)(=O)Nc1cccn2nc(C)nc12 [Analog C26-A6],tumor growth or metastasis,[1],did not further inhibit tumor growth or metastasis
same,lung metastasis (metastatic nodules),PyMT tumor cells,significantly suppressed lung metastasis
same,experimental lung metastasis,SCP28 cells,dramatically inhibited
